Data on one compound can be found in patent US20080044479A1, “Antimicrobial sanitizing formulations with skin protection properties” (priority 2006, published 2008).

The test system of experiment [1] is bacteria on skin surfaces. Kind of experiment: Persistence of bacterial reduction on skin surfaces. Format: in vivo. An excerpt: It has been discovered that incorporation of at least one of the aforementioned antimicrobial agents in a formulation comprised of a Surfactant Phase, and a Wax Phase result in a product which is particularly effective in preventing cross-contamination of pathogenic microorganisms in the workplace. […] It is applicable to any area of intact skin, and will kill pathogenic bacteria on contact and remain effective for extended periods of time. The mechanism of microbicidal action of these antibacterial agents is thought to be due to the disruption of intermolecular actions of the microbes.

Experiment [2] relates to gram-positive and gram-negative bacteria, plus fungi and yeasts. To be noted: see list in U.S. Pat. Nos. 6,187,327 and 6,517,854; cited from earlier work.

As to `Oc1cc(Cl)ccc1Oc1ccc(Cl)cc1Cl` [TRICLOSAN, 2,4,4′-trichloro-2′-hydroxydiphenyl ether], in experiment [1], the “period for which the incidence of bacteria on skin surfaces is significantly reduced” value is 3 to 4 h. Also, the efficacy against microorganisms result in experiment [2] is listed as “demonstrated efficacy”.
